Data from US10322191B2, “Targeted conjugates and particles and formulations thereof” (TARVEDA THERAPEUTICS, INC., priority 2014, dated 2019).
Read-outs that look alike come from different tables or passages of the source. Numbered stars: 1 amine (or outer) side, 2 acyl side, 3 side chain; on linkers, the order of the positions; unused ones are H or OH. Bridge positions count the residues as written; N and C are the ends. Square brackets hold non-standard residues; d marks the D form. Peptide text beside a SMILES is read from it. * marks the point of attachment. X1 = COc1cc2cc(c1Cl)N(C)C(=O)C[C@H](OC(=O)[C@H](C)N(C)C(=O)CCS*)[C@]1(C)O[C@H]1[C@H](C)[C@@H]1C[C@@](O)(NC(=O)O1)[C@H](OC)/C=C/C=C(\C)C2; N(3-sulfanylpropyl)dPhe = O=C([C@@H](Cc1ccccc1)N(CCCS[*:3])[*:1])[*:2]

Tests used:
[1] = test system: NCI-H69 SCLC (small cell lung cancer) tumors; assay: H69 tumor DM-1 levels by LC/MS-MS; format: in vivo, mice; details: 24 hour time point; dosed at 1 mg/kg (conjugates, nanoparticles) or 0.4 mg/kg for DM-1
Description: To examine the ability of conjugates of the present invention to accumulate in tumors, a murine cancer model was used. All mice were treated in accordance with the OLAW Public Health Service Policy on Human Care and Use of Laboratory Animals and the ILAR Guide for the Care and Use of Laboratory Animals. All in vivo studies were conducted following the protocols approved by the Blend Therapeutics Institutional Animal Care and Use Committee. Animals were inoculated with 2.5×10{circumflex over (0)}6 NCI-H69 SCLC (small cell lung cancer) cells in 1:1 RPMI 1640 (Invitrogen, Carlsbad, Calif.)/Matrigel® (BD Biosciences, San Jose, Calif.) via subcutaneous injection to the right flank. Tumors were allowed to reach an approximate volume of ˜500 mm3. Animals were then randomized into treatment groups of 3 animals per time point and were dosed at 1 mg/kg (10% propylene glycol in water for injection for free conjugates, or 10% sucrose for nanoparticles), or 0.4 mg/kg for DM-1 (10% propylene glycol in water for injection). The 24 hour time point was used as a benchmark across conjugates.
Tumor DM-1 levels were determined by liquid chromatography mass spectrometry (LC/MS-MS). Four volumes of 5 mM 6-maleimidohexanoic acid to 1 part tumor v/w was added and homogenized for about 10-15 seconds with a handheld homogenizer. 10 μL of 500 mM Tris(2-carboxyethyl)phosphine was added to 100 uL of tumor homogenate, mixed well and incubated at room temperature for about 5-15 min. 200-300 uL of acetonitrile was used to precipitate proteins in tumor homogenate, samples were centrifuged for 5 min, and supernatant was injected onto LC/MS-MS system for DM-1 analysis.

[2] = test system: NCI-H524 (ATCC) human lung cancer cells; format: cell-based; details: Table 15
How it was run: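 NCI-H524 cells at 5,000/well were exposed to conjugate for 2 h from 20 μM top dose (ten-point, three-fold dilutions), washed, then grown a further 70 h. For competition, cells were pretreated 30 min with 100 μM octreotide. CellTiter Glo readout; % inhibition vs vehicle; four-parameter IC50.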

[3] = biological target: SSTR2 (Homo sapiens, UniProt P30874); assay: Radioligand-receptor binding assay, [125I] labeled somatostatin, membranes from SSTR2 expressing CHO-K1 cells; set-up: host or cells: CHO-K1
SSTR2, sequence (P30874 whole entry): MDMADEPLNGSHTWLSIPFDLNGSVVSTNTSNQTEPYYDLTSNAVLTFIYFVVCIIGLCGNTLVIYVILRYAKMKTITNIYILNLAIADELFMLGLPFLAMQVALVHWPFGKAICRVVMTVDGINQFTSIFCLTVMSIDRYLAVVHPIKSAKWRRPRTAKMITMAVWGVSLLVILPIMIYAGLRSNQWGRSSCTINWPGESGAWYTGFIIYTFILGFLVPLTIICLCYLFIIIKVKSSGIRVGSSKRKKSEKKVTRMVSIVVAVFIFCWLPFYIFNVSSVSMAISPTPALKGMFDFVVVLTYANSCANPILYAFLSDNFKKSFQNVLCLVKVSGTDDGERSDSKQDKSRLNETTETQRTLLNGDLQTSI
Description: Two conjugates were assessed in an in vitro assay evaluating binding to the somatostatin receptor 2 (SSTR2). A radioligand-receptor binding assay was conducted at Eurofins Panlabs (Taiwan) to determine the affinity of conjugates described herein to the SSTR2. The assay measures binding of radiolabeled ligand, [^125I] labeled somatostatin, to human SSTR2 using membrane preparations from SSTR2 expressing CHO-K1 cells. Membranes were incubated with radiolabeled somatostatin (0.03 nM) in the presence of conjugate/compound starting at a dose of 10 uM using 6× serial dilutions to obtain a 10-pt curve. After a four-hour incubation, membranes were filtered and washed 3× and counted to determine the remaining [^125I] somatostatin bound to the receptor. IC50 values were determined by a non-linear, least squares regression analysis using MathIQ™ (ID Business Solutions Ltd., UK). The Ki values were calculated using the equation of Cheng and Prusoff (Cheng and Prusoff, Biochem. Pharmacol. 22: 3099-3108, 1973) using the observed IC50 of the tested conjugate/compound, the concentration of radioligand employed in the assay, and the historical values for the KD of the ligand obtained at Eurofins.

[4] = treated 2 hours, further incubated 70 hours, read-out: H524 IC50
[5] = read-out: H524 IC50+ 100 uM octreotide, 100 μM octreotide for 30 min, then conjugate 2 hours, 70 hours incubation

Compound	H69 tumor DM-1 levels [1] [nM]	IC50 [2, 4] [nM]	IC50 [2, 5] [nM]	Ki [3] [nM]
COc1cc2cc(c1Cl)N(C)C(=O)C[C@H](OC(=O)[C@H](C)N(C)C(=O)CCSSCCNC(=O)[C@@H](NC(=O)[C@@H]1CSSC[C@H](NC(=O)[C@H](N)Cc3ccccc3)C(=O)N[C@@H](Cc3ccc(O)cc3)C(=O)N[C@H](Cc3c[nH]c4ccccc34)C(=O)N[C@@H](CCCCN)C(=O)N[C@@H]([C@@H](C)O)C(=O)N1)[C@@H](C)O)[C@]1(C)O[C@H]1[C@H](C)[C@@H]1C[C@@](O)(NC(=O)O1)[C@H](OC)/C=C/C=C(\C)C2 [Conjugate 35]	23.2	253	1000	
COc1cc2cc(c1Cl)N(C)C(=O)C[C@H](OC(=O)[C@H](C)N(C)C(=O)CCS)[C@]1(C)O[C@H]1[C@H](C)[C@@H]1C[C@@](O)(NC(=O)O1)[C@H](OC)/C=C/C=C(\C)C2 [DM-1, reference compound]	31.6	90	90	
COc1cc2cc(c1Cl)N(C)C(=O)C[C@H](OC(=O)[C@H](C)N(C)C(=O)CCSSC[C@H](NC(=O)[C@@H]1CSSC[C@H](NC(=O)[C@H](N)Cc3ccccc3)C(=O)N[C@@H](Cc3ccc(O)cc3)C(=O)N[C@H](Cc3c[nH]c4ccccc34)C(=O)N[C@@H](CCCCN)C(=O)N[C@@H]([C@@H](C)O)C(=O)N1)C(N)=O)[C@]1(C)O[C@H]1[C@H](C)[C@@H]1C[C@@](O)(NC(=O)O1)[C@H](OC)/C=C/C=C(\C)C2 [Conjugate 57]	243	136	1650	
COc1cc2cc(c1Cl)N(C)C(=O)C[C@H](OC(=O)[C@H](C)N(C)C(=O)CCSSCCOc1ccc(C[C@@H](N)C(=O)N[C@H]3CSSC[C@@H](C(=O)N[C@H](C(=O)O)[C@@H](C)O)NC(=O)[C@H]([C@@H](C)O)NC(=O)[C@H](CCCCN)NC(=O)[C@@H](Cc4c[nH]c5ccccc45)NC(=O)[C@H](Cc4ccc(O)cc4)NC3=O)cc1)[C@]1(C)O[C@H]1[C@H](C)[C@@H]1C[C@@](O)(NC(=O)O1)[C@H](OC)/C=C/C=C(\C)C2 [Conjugate 111]	82.6	123	742	
COc1cc2cc(c1Cl)N(C)C(=O)C[C@H](OC(=O)[C@H](C)N(C)C(=O)CCSSCCC(=O)NCc1ccc(C[C@@H](N)C(=O)N[C@H]3CSSC[C@@H](C(=O)N[C@H](C(=O)O)[C@@H](C)O)NC(=O)[C@H]([C@@H](C)O)NC(=O)[C@H](CCCCN)NC(=O)[C@@H](Cc4c[nH]c5ccccc45)NC(=O)[C@H](Cc4ccc(O)cc4)NC3=O)cc1)[C@]1(C)O[C@H]1[C@H](C)[C@@H]1C[C@@](O)(NC(=O)O1)[C@H](OC)/C=C/C=C(\C)C2 [Conjugate 115]	37.1	327	1500	
CCCCCCCCN[C@H](Cc1ccccc1)C(=O)N[C@H]1CSSC[C@@H](C(=O)N[C@H](C(=O)NCCSSCCC(=O)N(C)[C@@H](C)C(=O)O[C@H]2CC(=O)N(C)c3cc(cc(OC)c3Cl)C/C(C)=C/C=C/[C@@H](OC)[C@@]3(O)C[C@H](OC(=O)N3)[C@@H](C)[C@@H]3O[C@@]23C)[C@@H](C)O)NC(=O)[C@H]([C@@H](C)O)NC(=O)[C@H](CCCCN)NC(=O)[C@@H](Cc2c[nH]c3ccccc23)NC(=O)[C@H](Cc2ccc(O)cc2)NC1=O [Conjugate 55]	95.3	47	395	
COc1cc2cc(c1Cl)N(C)C(=O)C[C@H](OC(=O)[C@H](C)N(C)C(=O)CCSSC[C@H](NC(=O)CC[C@H]1C(=O)N[C@@H](Cc3ccc(O)cc3)C(=O)N[C@H](Cc3c[nH]c4ccccc34)C(=O)N[C@@H](CCCCN)C(=O)N[C@@H]([C@@H](C)O)C(=O)N[C@@H](Cc3ccccc3)C(=O)N1C)C(=O)NC(C)(C)CC(C)(C)C)[C@]1(C)O[C@H]1[C@H](C)[C@@H]1C[C@@](O)(NC(=O)O1)[C@H](OC)/C=C/C=C(\C)C2 [Conjugate 16]	96.4	223	398	
COc1cc2cc(c1Cl)N(C)C(=O)C[C@H](OC(=O)[C@H](C)N(C)C(=O)CCSSCCC(=O)NCCCOCCOCCOCCCNC(=O)CC[C@H]1C(=O)N[C@@H](Cc3ccc(O)cc3)C(=O)N[C@H](Cc3c[nH]c4ccccc34)C(=O)N[C@@H](CCCCN)C(=O)N[C@@H]([C@@H](C)O)C(=O)N[C@@H](Cc3ccccc3)C(=O)N1C)[C@]1(C)O[C@H]1[C@H](C)[C@@H]1C[C@@](O)(NC(=O)O1)[C@H](OC)/C=C/C=C(\C)C2 [Conjugate 18]	86.3	1480	2160	
COc1cc2cc(c1Cl)N(C)C(=O)C[C@H](OC(=O)[C@H](C)N(C)C(=O)CCSSCCCN[C@H](Cc1ccccc1)C(=O)N[C@H]1CSSC[C@@H](C(=O)N[C@H](C(=O)O)[C@@H](C)O)NC(=O)[C@H]([C@@H](C)O)NC(=O)[C@H](CCCCN)NC(=O)[C@@H](Cc3c[nH]c4ccccc34)NC(=O)[C@H](Cc3ccc(O)cc3)NC1=O)[C@]1(C)O[C@H]1[C@H](C)[C@@H]1C[C@@](O)(NC(=O)O1)[C@H](OC)/C=C/C=C(\C)C2 [Conjugate 80]	91.2	152	157	
COc1cc2cc(c1Cl)N(C)C(=O)C[C@H](OC(=O)[C@H](C)N(C)C(=O)CCSSCCCN[C@H](Cc1ccccc1)C(=O)N[C@H]1CSSC[C@@H](C(=O)N[C@@H](Cc3c[nH]c4ccccc34)C(N)=O)NC(=O)[C@H](C(C)C)NC(=O)[C@H](CCCCN)NC(=O)[C@@H](Cc3c[nH]c4ccccc34)NC(=O)[C@H](Cc3ccc(O)cc3)NC1=O)[C@]1(C)O[C@H]1[C@H](C)[C@@H]1C[C@@](O)(NC(=O)O1)[C@H](OC)/C=C/C=C(\C)C2 [Conjugate 78] (H-[N(3-sulfanylpropyl)dPhe](X1)CY[dW]KVCW-NH2; disulfide 2-7)	36.2	124	365	0.19
CCCCN(CCSSCCC(=O)N(C)[C@@H](C)C(=O)O[C@H]1CC(=O)N(C)c2cc(cc(OC)c2Cl)C/C(C)=C/C=C/[C@@H](OC)[C@@]2(O)C[C@H](OC(=O)N2)[C@@H](C)[C@@H]2O[C@@]12C)C(=O)CC[C@H]1C(=O)N[C@@H](Cc2ccc(O)cc2)C(=O)N[C@H](Cc2c[nH]c3ccccc23)C(=O)N[C@@H](CCCCN)C(=O)N[C@@H]([C@@H](C)O)C(=O)N[C@@H](Cc2ccccc2)C(=O)N1C [Conjugate 22]	145	332	741	
